Tests used:
[1] = in vitro reduction of headspace H2S by isothiocyanates (GC-SCD); details: for Peak Area (headspace H2S): 200 ppm H2S in 5 ml PBS pH 7.4, 5 min 37° C.
Procedure: A stock solution of H2S was prepared by a serial dilution in PBS buffer (pH 7.4), with a final concentration of 200 ppm. Allyl isothiocyanate, benzyl isothiocyanate, ethyl isothiocyanate and 3-methylthiopropyl isothiocyanate (all from Sigma-Aldrich) were dissolved in pure ethanol to form 1.0% of working solution of each. A total of 5 ml PBS buffer containing 200 ppm of H2S in a headspace vial (22 ml volume) was mixed with 0.125, 0.25, 0.5 and 1 mg of each isothiocyanate compound for 5 min at 37° C., respectively. The headspace sample was injected into the GC-SCD by an automatic sampler for VSC analysis. The reduction of headspace concentration of H2S was calculated by the formula below: […]
In view of the results pertaining to allyl isothiocyanate in Table 1, Applicants further evaluated allyl isothiocyanate in vitro for its VSC elimination effect of hydrogen sulfide (H2S). A […] headspace vial containing 5 ml of PBS solution and 200 ppm of H2S was treated with various concentrations of allyl isothiocyanate, respectively (0.25-1.0 mg). In a standard experimental protocol, a stock of hydrogen sulfide solutions were prepared by dissolving c.a. 0.10 g of sodium sulfide in a total of 10 ml phosphate buffer solution (PBS) (pH 7.4). It was further diluted in PBS to produce a working solution contained 200 ppm of H2S in buffer.

[2] = in vitro headspace GC-SCD test of zinc salts against H2S; details: 5 ml PBS containing 1 mg H2S, 37° C. 5 min; for reduces the oral malodor produced by hydrogen sulfide (H2S): FIG. 2
Procedure: In another experiment, 5 ml of PBS solution containing 1 mg of H2S was prepared via a serial dilution in a 22 ml headspace vial for FIG. 2 below. Different amounts of zinc salts were added and mixed at 37° C. for 5 min. The headspace concentration of H2S was analyzed by GC-SCD.

[3] = zinc lactate and AITC against VSC mixture, headspace GC-SCD: H2S; details: 1 mg in 5 ml VSC mixture (200 ppm H2S, 40 ppm CH3SH), 37° C. 5 min, FIG. 4
Procedure: (§1) The final concentrations of H2S and CH3SH in solution were a 200 and 40 ppm, respectively. The final amount of VSC was 1.2 mg in the test vial. Although the headspace concentrations of H2S and CH3SH were well above the level found in a typical foul mouth air (200-500 parts per billion), the total amount of VSC was close to the amount presented in oral cavity. Subsequently, 5 ml of the VSC mixture was kept in a 22 ml tight screw cap headspace vial at 37° C. for 5 min. The headspace sample was injected into a GC column with an SCD detector. […] The large peak area of CH3SH reflects its volatility in the headspace compared with H2S.
(§2) Separately, 1 mg of zinc lactate, or 1 mg of allyl isothiocyanate (AITC), or combination of 1 mg Zinc lactate and 1 mg of AITC were added to each of headspace vial containing 5 ml VSC mixture and equilibrated at 37° C. for 5 min. Each headspace sample was injected into a GC column by a Combi-Pal auto-sampler. The amount of sulfur was analyzed by an Agilent SCD-355 chemoluminescent sulfide detector.

[4] = zinc lactate and AITC against VSC mixture, headspace GC-SCD: CH3SH; details: 1 mg in 5 ml VSC mixture (200 ppm H2S, 40 ppm CH3SH), 37° C. 5 min, FIG. 4
Procedure: as §1, §2

[5] = in vitro headspace GC-SCD test of zinc salts against methyl mercaptan; details: 200 ppm CH3SH in 5 ml PBS pH 7.4, 5 minutes at 37° C., FIG. 1
Procedure: For evaluation of the efficacy of various zinc salts against specific VSCs, the Applicants established an in vitro method using a headspace gas-chromatograph equipped with a sulfur detector. Thus, a total of 200 ppm of CH3SH in 5 ml of phosphate buffer solution (PBS) was prepared. The pH was maintained at 7.4. […] The headspace sample was injected into a gas chromatograph sulfur chemiluminescence detector (GC-SCD).

[6] = 50 ppm isothiocyanate, 200 ppm H2S
[7] = 100 ppm isothiocyanate, 200 ppm H2S
[8] = 200 ppm isothiocyanate, 200 ppm H2S

Row | Compound | % Reduction of headspace concentration (H2S) [1, 6] [%] | Peak Area (headspace H2S) ([1]; 50 ppm isothiocyanate) | % Reduction of headspace concentration (H2S) [1, 7] [%] | Peak Area (headspace H2S) ([1]; 100 ppm isothiocyanate) | % Reduction of headspace concentration (H2S) [1, 8] [%] | Peak Area (headspace H2S) ([1]; 200 ppm isothiocyanate) | reduces the oral malodor produced by hydrogen sulfide (H2S) [2] | also measured
1 | CCN=C=S [Ethylisothiocyanate, ethyl isothiocyanate] | −13 | 963110533 | 14.9 | 726258436 | 68 | 271822727 | – | % Reduction of headspace concentration (H2S) ([1]; 200 ppm isothiocyanate, 200 ppm H2S, listed as ethylisothiocyanate): 68%
2 | CC(O)C(=O)[O-].CC(O)C(=O)[O-].[Zn+2] (stereo not drawn) [zinc lactate] | – | – | – | – | – | – | reduces | amount of zinc salt above which H2S is reduced ([2]; in vitro): greater than 0.25 mg; H2S eliminated [3]: 98%; CH3SH eliminated [4]: 0%; reducing the headspace concentration of methyl mercaptan (CH3SH) [5]: ineffective
3 | C=CCN=C=S [Allyl isothiocyanate, allyl isothiocyanate] | 49 | 431713256 | 98.4 | 13651581 | 99.5 | 4266119 | – | Reduction of H2S ([1]; 0.25 mg allyl isothiocyanate, 5 ml PBS, 200 ppm H2S): 49.0%; Reduction of H2S ([1]; 0.5 mg allyl isothiocyanate, 5 ml PBS, 200 ppm H2S): 98.4%; Reduction of H2S ([1]; 1 mg allyl isothiocyanate, 5 ml PBS, 200 ppm H2S): 99.5%; Reduction of H2S ([1]; at 100 ppm or greater): greater than 90%; H2S eliminated [3]: 98%; CH3SH eliminated [4]: 78%
4 | S=C=NCc1ccccc1 [Benzyl isothiocyanate, benzyl isothiocyanate] | 53 | 398519292 | – | – | – | – | – | % Reduction of headspace concentration (H2S) ([1]; 25 ppm isothiocyanate, 200 ppm H2S): 42%; Peak Area (headspace H2S) ([1]; 25 ppm isothiocyanate): 491908604; % Reduction of headspace concentration (H2S) ([1]; 50 ppm isothiocyanate, 200 ppm H2S, listed as benzyl isothiocyanate): greater than 50%
5 | CSCCCN=C=S [3-methylthiopropyl isothiocyanate] | 51 | 416687277 | 75 | 211177117 | 94.5 | 46897168 | – | –
6 | zinc hydrogen aspartate | – | – | – | – | – | – | reduces | –
7 | zinc ascorbate | – | – | – | – | – | – | reduces | –
8 | zinc gluconate | – | – | – | – | – | – | reduces | reducing the headspace concentration of methyl mercaptan (CH3SH) [5]: ineffective

— US10543155B2, “Compositions containing zinc salts and isothiocyanates for reduction of oral volatile sulfur compounds (VSCs)” (priority 2011, dated 2020)
